Results published in publication PMC9785006, “The Study of Hypoglycemic Activity of 7-Terpenylcoumarins” (Molecules, 2022).

Columns and labels:
[1] = target: T1, DPP IV (Homo sapiens, UniProt P27487); assay: fluorometric DPP (IV) inhibitor screening kit (Cayman), Gly-Pro-AMC substrate; at […] the effect was only a tendency ([…] < p < […]); type: biochemical
T1 construct: gene DPP4

[2] = target: T1, DPP IV; assay: fluorometric DPP (IV) inhibitor screening kit (Cayman), Gly-Pro-AMC substrate; type: biochemical

T1 sequence (P27487 39-766): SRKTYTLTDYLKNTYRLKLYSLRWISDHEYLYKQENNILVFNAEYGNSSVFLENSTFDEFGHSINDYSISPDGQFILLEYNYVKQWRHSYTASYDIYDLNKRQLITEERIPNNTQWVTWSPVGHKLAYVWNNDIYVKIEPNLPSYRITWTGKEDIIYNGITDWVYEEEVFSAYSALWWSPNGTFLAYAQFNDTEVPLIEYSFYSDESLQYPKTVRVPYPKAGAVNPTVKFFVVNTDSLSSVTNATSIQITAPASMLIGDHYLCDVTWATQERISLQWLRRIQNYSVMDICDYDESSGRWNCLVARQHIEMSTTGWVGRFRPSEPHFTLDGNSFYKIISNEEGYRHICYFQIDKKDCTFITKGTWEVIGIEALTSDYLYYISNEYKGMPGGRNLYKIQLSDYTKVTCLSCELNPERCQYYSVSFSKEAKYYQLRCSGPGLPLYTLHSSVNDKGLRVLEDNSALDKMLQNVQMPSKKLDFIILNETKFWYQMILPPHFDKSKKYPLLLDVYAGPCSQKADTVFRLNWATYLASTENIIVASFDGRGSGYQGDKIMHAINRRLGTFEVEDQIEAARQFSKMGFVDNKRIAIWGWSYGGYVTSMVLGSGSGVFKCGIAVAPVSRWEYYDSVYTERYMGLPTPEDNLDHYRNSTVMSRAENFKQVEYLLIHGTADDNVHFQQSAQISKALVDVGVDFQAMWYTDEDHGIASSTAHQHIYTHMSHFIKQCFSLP

| IC50 [1] [µM] | IC50 [2] [µM] | Structure (SMILES) |
| --- | --- | --- |
| 115 |  | CC1(C)[C@H]2CC=C(COc3ccc4c5c(c(=O)oc4c3)CCC5)[C@@H]1C2 [7b, 7-(((1R,5S)-6,6-Dimethylbicyclo [3.1.1]hept-2-en-2-yl)methoxy)-2,3-dihydrocyclopenta[c]chromen-4(1H)-one] |
|  | 128 | CC(C)=CCC/C(C)=C/COc1ccc2c(-c3ccccc3)cc(=O)oc2c1 [9a, (E)-7-(3,7-Dimethylocta-2,6-dienyloxy)-4-phenyl-2H-chromen-2-one] |
